Target: T1, PAR-1 receptor (Homo sapiens, UniProt P25116)
T1 construct: endogenous in cells; host or cells: HEK 293
T1 sequence (P25116 22-425): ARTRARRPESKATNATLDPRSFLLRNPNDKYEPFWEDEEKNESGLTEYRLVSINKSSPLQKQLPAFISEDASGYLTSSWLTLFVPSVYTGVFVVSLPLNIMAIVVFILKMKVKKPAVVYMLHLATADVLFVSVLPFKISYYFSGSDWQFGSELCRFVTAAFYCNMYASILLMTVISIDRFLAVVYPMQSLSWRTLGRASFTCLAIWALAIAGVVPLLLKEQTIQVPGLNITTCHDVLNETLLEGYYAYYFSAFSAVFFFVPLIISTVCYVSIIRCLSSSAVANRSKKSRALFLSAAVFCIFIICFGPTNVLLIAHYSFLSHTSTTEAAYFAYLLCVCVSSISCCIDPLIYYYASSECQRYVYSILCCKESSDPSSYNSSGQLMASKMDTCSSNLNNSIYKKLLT
Assay: PAR-1 FLIPR Assay
Type: cell-based
Conditions: HEK 293 cells, FLIPR calcium-5 dye; inhibition of signal from PAR1 selective receptor-activating peptide at 80% activation concentration (1.4-2.0 uM); compound incubated 30 minutes at 25 degrees
Procedure: The following assay was used to determine the ability of the inventive compounds to inhibit the PAR-1 receptor.
HEK 293 Cells are grown in media containing DMEM, 10% FBS pen/strep/L-Glutamine and non-essential amino acids. The cells are plated in 384-well PDL coated plates at 12000 cells/well and incubated overnight at 37° C./5% CO2. Media is then removed from the cells, which are then incubated with buffer (Hank's containing HEPES and Chaps) containing FLIPR calcium-5 dye, made with buffer containing probenecid, for 60 minutes at 37° C. Varying concentrations of compound in a final concentration of 5% DMSO are then added to the cells and incubated at 25 degrees for 30 minutes. The plates are then added to a FLIPR Tetra cellular screening system and the device adds a concentration of a PAR1 selective receptor-activating peptide with the sequence Ala-parafluoroPhe-Arg-Cha-Cit-Tyr-NH2 (SEQ ID NO: 3) (prepared in water) at a concentration equal to the effective concentration that achieves 80% activation of signaling on the day of the experiment. The range is from 1.4-2.0 uM peptide. The FLIPR reads at an excitation wavelength of 480 nm and an emission wavelength of 535 nm, and performs 60 scans over a 1-2 min reading time. The data are analyzed by taking the peak signal over a portion of the range of the 60 scans and dividing this signal by the minimum signal for that same range. The data are expressed as percent inhibition of the maximum divided by the minimum signal achieved at 80% activation produced by the PAR1 activating peptide on the test day.

SMILES	IC50 [nM]
COc1ncccc1-c1ccc(/C=C/[C@@H]2[C@@H]3[C@@H](C)NS(=O)(=O)[C@]3(CC(N)=O)CC(F)(F)[C@H]2C)nc1 [Example 18, 2-((3R,3aR,4S,5S,7aR)-6,6-difluoro-4-((E)-2-(2′-methoxy-[3,3′-bipyridin]-6-yl)vinyl)-3,5-dimethyl-1,1-dioxidooctahydrobenzo[d]isothiazol-7a-yl)acetamide]	36.8
COc1ncccc1-c1ccc(/C=C/[C@@H]2[C@@H]3[C@@H](C)N(C(=O)OC(C)(C)C)S(=O)(=O)[C@@H]3CC(F)(F)[C@H]2C)nc1 [Example 13, (3R,3aR,4S,5S,7aR)-tert-butyl 6,6-difluoro-4-((E)-2-(2′-methoxy-[3,3′-bipyridin]-6-yl)vinyl)-3,5-dimethylhexahydrobenzo[d]isothiazole-2(3H)-carboxylate 1,1-dioxide]	278
CC[C@@H]1CC[C@@H]2[C@H]([C@H]1/C=C/c1ccc(-c3ccccc3C#N)cn1)[C@@H](C)N(CCO)S2(=O)=O [Example 29, 2-(6-((E)-2-((3R,3aR,4R,5R,7aR)-5-ethyl-2-(2-hydroxyethyl)-3-methyl-1,1-dioxidooctahydrobenzo[d]isothiazol-4-yl)vinyl)pyridin-3-yl)benzonitrile]	540
C[C@H]1NS(=O)(=O)[C@]2(C)CC(F)(F)[C@@H](C)[C@H](/C=C/c3ccc(-c4cccc(F)c4)cn3)[C@H]12 [Example 15, (3R,3aR,4S,5S,7aR)-6,6-difluoro-4-((E)-2-(5-(3-fluorophenyl)pyridin-2-yl)vinyl)-3,5,7a-trimethyloctahydrobenzo[d]isothiazole 1,1-dioxide]	55.1
CCOC(=O)C[C@@]12CC(F)(F)[C@@H](C)[C@H](/C=C/c3ccc(-c4ccccc4C#N)cn3)[C@@H]1[C@@H](C)N(C(=O)OC(C)(C)C)S2(=O)=O [Example 26]	54
Cc1nc(/C=C/[C@@H]2[C@H]3[C@@H](CC(F)(F)[C@H]2C)S(=O)(=O)N[C@@H]3C)ccc1-c1ccccc1C#N [Example 6, (3R,3aR,4S,5S,7aR)-4-((E)-2-(5-(2-cyanophenyl)pyridin-2-yl)-6-methylvinyl)-6,6-difluoro-3,5-dimethyloctahydrobenzo[d]isothiazole-1,1-dioxide]	66.7
C[C@H]1NS(=O)(=O)[C@]2(CC(N)=O)CC(F)(F)[C@@H](C)[C@H](/C=C/c3ccc(-c4cccnc4C#N)cn3)[C@H]12 [Example 24, 2-((3R,3aR,4S,5S,7aR)-6,6-difluoro-4-((E)-2-(2′-cyano-[3,3′-bipyridin]-6-yl)vinyl)-3,5-dimethyl-1,1-dioxidooctahydrobenzo[d]isothiazol-7a-yl)acetamide]	89

The next compounds have a lower IC50 than those just listed; values first:

IC50 [nM]	SMILES
19	C[C@H]1NS(=O)(=O)[C@@H]2CC(F)(F)[C@@H](C)[C@H](/C=C/c3ccc(-c4cccc(F)c4)cn3)[C@@H]21 [Example 5, (3R,3aR,4S,5S,7aR)-6,6-difluoro-4-((E)-2-(5-(3-fluorophenyl)pyridin-2-yl)vinyl)-3,5-dimethyloctahydrobenzo[d]isothiazole 1,1-dioxide]
11.9	C[C@H]1NS(=O)(=O)[C@@H]2CC(F)(F)[C@@H](C)[C@H](/C=C/c3ccc(-c4ccccc4C#N)cn3)[C@@H]21 [Example 3, (3R,3aR,4S,5S,7aR)-4-((E)-2-(5-(2-cyanophenyl)pyridin-2-yl)vinyl)-6,6-difluoro-3,5-dimethyloctahydrobenzo[d]isothiazole-1,1-dioxide]
12	C[C@H]1NS(=O)(=O)[C@]2(C)CC(F)(F)[C@@H](C)[C@H](/C=C/c3ccc(-c4cccnc4C#N)cn3)[C@H]12 [Example 17, (3R,3aR,4S,5S,7aR)-6,6-difluoro-4-((E)-2-(2′-cyano-[3,3′-bipyridin]-6-yl)vinyl)-3,5,7a-trimethyloctahydrobenzo[d]isothiazole 1,1-dioxide]
